These results are taken from patent US20240247080A1, “GLP1/GIP/NPY2 RECEPTOR TRIPLE AGONISTS” (Boehringer Ingelheim International GmbH, priority 2022, published 2024).

What is called MRT is a mean duration of stay, worked out from the concentration-time curve.

Read-outs that look alike come from different tables or passages of the source. Starred links: 1 amine or outer side, 2 acyl side, 3 side chain; linkers in the order of their positions; H or OH if unused. Non-standard residues stand in square brackets, D forms with d. Groups on a side chain read outwards from the residue. No end group written: not given here. *: point of attachment. C20 diacid = O=C(O)CCCCCCCCCCCCCCCCCCC(=O)*; C18 diacid = O=C(O)CCCCCCCCCCCCCCCCC(=O)*; γGlu = O=C(O)[C@H](CCC(=O)[*:2])N[*:1]; AEEA = NCCOCCOCC(=O)O; Aib = CC(C)(N)C(=O)O

In one data set the target is T1, hGLP1R (Homo sapiens, UniProt P43220).
T1 construct: expressed in transfected cells; host or cells: HEK-293 cells carrying a CRE-luciferase reporter gene
The data set can be described thus: hGLP1R CreLuc reporter gene assay in 0.5% and 100% plasma. The class given is cell-based. To be noted: CreLuc reporter gene assay. The method, boiled down:
(§1)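 HEK-293 cells co-expressing GLP-1 or NPY2 receptor and CHO cells expressing GIP receptor, each carrying a CRE-driven luciferase reporter, were stimulated with peptides for 4 hours at 37 °C. Luminescence was read after Bright-Glo addition. EC50 came from 8-point, four-decade curves fitted by variable-slope non-linear regression.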
(In a reporter assay the amount or activity of a reporter protein is the signal.)

Another data set deals with T2, hGIPR (Homo sapiens, UniProt P48546).
T2 construct: expressed in transfected cells; host or cells: CHO cells carrying a CRE-luciferase reporter gene
T2 sequence (P48546 22-466): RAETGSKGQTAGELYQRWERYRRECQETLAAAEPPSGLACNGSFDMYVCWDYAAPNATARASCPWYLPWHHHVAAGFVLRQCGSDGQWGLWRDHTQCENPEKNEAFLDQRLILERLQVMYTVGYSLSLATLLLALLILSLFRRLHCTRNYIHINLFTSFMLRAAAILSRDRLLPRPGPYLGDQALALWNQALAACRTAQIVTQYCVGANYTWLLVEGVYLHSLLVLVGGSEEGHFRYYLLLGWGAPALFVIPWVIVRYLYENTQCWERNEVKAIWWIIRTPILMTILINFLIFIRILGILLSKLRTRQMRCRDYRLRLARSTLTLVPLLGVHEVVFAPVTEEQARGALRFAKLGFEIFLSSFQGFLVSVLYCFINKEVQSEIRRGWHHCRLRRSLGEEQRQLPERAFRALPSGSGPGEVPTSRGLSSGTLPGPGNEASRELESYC
The data set can be described thus: hGIPR CreLuc reporter gene assay in 0.5% and 100% plasma. The conditions noted are these: CreLuc reporter gene assay. The class given is cell-based. The method, boiled down: as §1

In the next data set the target is T3, hNPY2R (Homo sapiens, UniProt P49146).
T3 construct: expressed in transfected cells; host or cells: HEK-293 cells carrying a CRE-luciferase reporter gene
T3 sequence (P49146 1-381): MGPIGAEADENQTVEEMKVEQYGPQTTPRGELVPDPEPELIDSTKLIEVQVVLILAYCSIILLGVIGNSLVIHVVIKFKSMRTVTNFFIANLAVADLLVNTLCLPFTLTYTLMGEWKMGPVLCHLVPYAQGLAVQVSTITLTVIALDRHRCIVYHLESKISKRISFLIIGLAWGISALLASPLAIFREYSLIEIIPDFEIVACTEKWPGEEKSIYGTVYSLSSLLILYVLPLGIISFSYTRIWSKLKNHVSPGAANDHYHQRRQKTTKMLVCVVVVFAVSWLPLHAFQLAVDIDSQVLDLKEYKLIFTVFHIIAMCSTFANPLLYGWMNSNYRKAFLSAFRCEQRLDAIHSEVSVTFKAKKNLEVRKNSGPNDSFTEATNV
The data set can be described thus: hNPY2R CreLuc reporter gene assay in 0.5% and 100% plasma. The class given is cell-based. To be noted: CreLuc reporter gene assay. In outline: as §1

A short description of data set [1]: Mouse PK after intravenous application. It is filed as in vivo. The conditions noted are these: plasma, mean residence time, intravenous 30-60 nmol/kg, male NMRI mice. As to the method:
Pharmacokinetic parameters of the peptides were determined after intravenous application to NMRI mice. Male NMRI mice were obtained from Janvier Laboratories (France) weighing 30 to 40 g. Mice were housed in standard cages with a 12:12 hour light:dark cycle and standard food and water access ad libitum. Each test peptide was dissolved in 50 mM phosphate buffer (pH 7.4)/3.5% mannitol. Intravenous application of 30-60 nmol/kg was performed via the tail vein. Serial blood samples from conscious mice were collected from the saphenous vein in EDTA-containing vials at different time points up to 56 hours post-dosing. Subsequently, plasma was prepared by centrifugation for 5 min at approximately 5000 rpm and stored at −20° C. until quantification of the peptide plasma levels by liquid chromatography mass spectrometry (LC-MS). Individual plasma concentration—time profiles were analysed by a non-compartmental approach and the resulting pharmacokinetic parameters were calculated.

Where [2] appears, read: 0.5% human plasma, read-out: hGLP1R 0.5% hP.
Setting [3] is: 0.5% human plasma, read-out: hGIPR 0.5% hP.
The mark [4] stands for this setting: 100% human plasma, read-out: hGIPR 100% hP.
The mark [5] stands for this setting: 0.5% human plasma, read-out: hNPY2R 0.5% hP.
The mark [6] stands for this setting: 100% human plasma, read-out: hGLP1R 100% hP.

T1 sequence (P43220 24-463): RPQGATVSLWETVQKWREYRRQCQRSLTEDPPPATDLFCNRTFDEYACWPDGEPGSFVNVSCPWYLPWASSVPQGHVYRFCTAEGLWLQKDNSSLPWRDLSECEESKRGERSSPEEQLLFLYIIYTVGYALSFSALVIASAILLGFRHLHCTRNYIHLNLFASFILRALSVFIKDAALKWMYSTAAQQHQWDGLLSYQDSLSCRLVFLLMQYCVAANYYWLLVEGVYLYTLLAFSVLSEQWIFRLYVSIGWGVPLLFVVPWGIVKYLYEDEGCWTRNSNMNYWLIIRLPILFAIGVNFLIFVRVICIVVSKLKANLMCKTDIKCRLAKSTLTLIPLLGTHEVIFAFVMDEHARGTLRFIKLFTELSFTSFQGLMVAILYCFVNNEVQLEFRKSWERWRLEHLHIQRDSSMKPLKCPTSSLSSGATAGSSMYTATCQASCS

For the compound `CC[C@H](C)[C@H](NC(=O)[C@H](CC(C)C)NC(=O)[C@H](Cc1c[nH]c2ccccc12)NC(=O)[C@H](CCC(=O)O)NC(=O)[C@@H](NC(=O)[C@H](Cc1ccccc1)NC(=O)[C@H](C)NC(=O)C(C)(C)NC(=O)[C@H](CCC(N)=O)NC(=O)[C@H](C)NC(=O)[C@H](CCC(N)=O)NC(=O)[C@H](CCCCN)NC(=O)[C@H](CCC(=O)O)NC(=O)[C@H](CC(C)C)NC(=O)C(C)(C)NC(=O)[C@@H](NC(=O)[C@H](CO)NC(=O)[C@H](Cc1ccc(O)cc1)NC(=O)[C@H](CC(=O)O)NC(=O)[C@H](CO)NC(=O)[C@@H](NC(=O)[C@H](Cc1ccccc1)NC(=O)[C@@H](NC(=O)CNC(=O)[C@H](CCC(=O)O)NC(=O)C(C)(C)NC(=O)[C@@H](N)Cc1ccc(O)cc1)[C@@H](C)O)[C@@H](C)O)[C@@H](C)CC)C(C)C)C(=O)N[C@@H](CCCCNC(=O)[C@@H](N)CCCCNC(=O)CC[C@H](NC(=O)CC[C@H](NC(=O)CC[C@H](NC(=O)CC[C@H](NC(=O)CC[C@H](NC(=O)CC[C@H](NC(=O)CCCCCCCCCCCCCCCCCCC(=O)O)C(=O)O)C(=O)O)C(=O)O)C(=O)O)C(=O)O)C(=O)O)C(=O)NCC(=O)NCC(=O)N1CCC[C@H]1C(=O)N[C@@H](CO)C(=O)N[C@@H](CO)C(=O)NCC(=O)N[C@@H](C)C(=O)N[C@@H](CO)C(=O)N[C@@H](CC(C)C)C(=O)N[C@@H](CCCNC(=N)N)C(=O)N[C@@H](Cc1c[nH]cn1)C(=O)N[C@@H](Cc1ccc(O)cc1)C(=O)N[C@@H](Cc1ccc(O)cc1)C(=O)N[C@@H](CC(N)=O)C(=O)N[C@@H](Cc1c[nH]c2ccccc12)C(=O)N[C@@H](CC(C)C)C(=O)N[C@H](C(=O)N[C@@H](CCCNC(=N)N)C(=O)N(C)[C@@H](CCC(N)=O)C(=O)N[C@@H](CCCNC(=N)N)C(=O)N[C@@H](Cc1ccc(O)cc1)C(N)=O)[C@@H](C)O` [Compound 85, Y-Aib-E-G-T-F-T-S-D-Y-S-I-Aib-L-E-K-Q-A-Q-Aib-A-F-V-E-W-L-I-K(1,3)-G-G-P-S-S-G-A-S-L-R-H-Y-Y-N-W-L-T-R-NMeQ-R-Y-NH2.C20DA-gGlu-gGlu-gGlu-gGlu-gGlu-gGlu-eLys(1,2)], the EC50 was 0.15 nM on hGLP1R (setting [2]), 0.22 nM on hGIPR (setting [3]), 1.11 nM on hGIPR (setting [4]) and 10.3 nM at hNPY2R (setting [5]). For the same compound, the MRT in data set [1] is 12.6 h.

As to “Y[Aib]EGTFTSDYSI[Aib]LEKQAQ[Aib]AFVQWLIK([γGlu-γGlu-γGlu-γGlu-γGlu-γGlu-C20 diacid])GGPSEGASLRHYYNWLTRQRY-NH2 [Compound 223, Y-Aib-E-G-T-F-T-S-D-Y-S-I-Aib-L-E-K-Q-A-Q-Aib-A-F-V-Q-W-L-I-K(1,3)-GGPSEGASLRHYYNWLTRQRY-NH2.C20DA-gGlu-gGlu-gGlu-gGlu-gGlu-gGlu(1,2)]”, the EC50 on hGLP1R (setting [2]) was 0.18 nM; on hGLP1R (setting [6]) it was 4.39 nM; on hGIPR (setting [3]), 0.39 nM; at hNPY2R (setting [5]), 13.2 nM. In data set [1], this compound displayed an MRT of 8.8 h.

Turning to `CC[C@H](C)[C@H](NC(=O)[C@H](CC(C)C)NC(=O)[C@H](Cc1c[nH]c2ccccc12)NC(=O)[C@H](CCC(=O)O)NC(=O)[C@@H](NC(=O)[C@H](Cc1ccccc1)NC(=O)[C@H](C)NC(=O)C(C)(C)NC(=O)[C@H](CCC(N)=O)NC(=O)[C@H](C)NC(=O)[C@H](CCC(N)=O)NC(=O)[C@H](CCCCN)NC(=O)[C@H](CCC(=O)O)NC(=O)[C@H](CC(C)C)NC(=O)C(C)(C)NC(=O)[C@@H](NC(=O)[C@H](CO)NC(=O)[C@H](Cc1ccc(O)cc1)NC(=O)[C@H](CC(=O)O)NC(=O)[C@H](CO)NC(=O)[C@@H](NC(=O)[C@H](Cc1ccccc1)NC(=O)[C@@H](NC(=O)CNC(=O)[C@H](CCC(=O)O)NC(=O)C(C)(C)NC(=O)[C@@H](N)Cc1ccc(O)cc1)[C@@H](C)O)[C@@H](C)O)[C@@H](C)CC)C(C)C)C(=O)N[C@@H](CCCCNC(=O)[C@@H](N)CCCCNC(=O)CC[C@H](NC(=O)CC[C@H](NC(=O)CC[C@H](NC(=O)CC[C@H](NC(=O)CC[C@H](NC(=O)CC[C@H](NC(=O)CCCCCCCCCCCCCCCCCCC(=O)O)C(=O)O)C(=O)O)C(=O)O)C(=O)O)C(=O)O)C(=O)O)C(=O)NCC(=O)NCC(=O)N1CCC[C@H]1C(=O)N[C@@H](CO)C(=O)N[C@@H](CO)C(=O)NCC(=O)N[C@@H](C)C(=O)N[C@@H](CO)C(=O)N[C@@H](CC(C)C)C(=O)N[C@@H](CCCNC(=N)N)C(=O)N[C@@H](Cc1c[nH]cn1)C(=O)N[C@@H](Cc1ccc(O)cc1)C(=O)N[C@@H](Cc1ccc(O)cc1)C(=O)N[C@@H](CC(N)=O)C(=O)N[C@@H](Cc1c[nH]c2ccccc12)C(=O)N[C@@H](CC(C)C)C(=O)N[C@H](C(=O)N[C@@H](CCCNC(=N)N)C(=O)N[C@@H](CCC(N)=O)C(=O)N(C)[C@@H](CCCNC(=N)N)C(=O)N[C@@H](Cc1ccc(O)cc1)C(N)=O)[C@@H](C)O` [Compound 83, Y-Aib-E-G-T-F-T-S-D-Y-S-I-Aib-L-E-K-Q-A-Q-Aib-A-F-V-E-W-L-I-K(1,3)-G-G-P-S-S-G-A-S-L-R-H-Y-Y-N-W-L-T-R-Q-NMeR-Y-NH2.C20DA-gGlu-gGlu-gGlu-gGlu-gGlu-gGlu-eLys(1,2)], the EC50 worked out at 0.17 nM on hGLP1R (setting [2]); 2.87 nM on hGLP1R (setting [6]); 0.13 nM at hGIPR (setting [3]); 1.06 nM at hGIPR (setting [4]); 28.8 nM on hNPY2R (setting [5]). The compound further displayed an MRT in data set [1] of 10.3 h.

For “Y[Aib]EGTFTSDYSI[Aib]LEKQAQ[Aib]AFVEWLIK([AEEA-AEEA-γGlu-γGlu-γGlu-γGlu-C18 diacid])GGPSEGASLRHYYNWLTRQRY-NH2 [Compound 297, Y-Aib-E-G-T-F-T-S-D-Y-S-I-Aib-L-E-K-Q-A-Q-Aib-A-F-V-E-W-L-I-K(1,3)-GGPSEGASLRHYYNWLTRQRY-NH2.C18DA-gGlu-gGlu-gGlu-gGlu-OEG-OEG(1,2)]”, the EC50 on hGLP1R (setting [2]) was 0.12 nM; on hGIPR (setting [3]), 0.25 nM; at hGIPR (setting [4]), 0.93 nM; on hNPY2R (100% human plasma, read-out: hNPY2R 100% hP), 40.5 nM. Further, in data set [1], the MRT was 7.5 h.

Turning to “Y[Aib]EGTFTSDYSI[Aib]LEKQAQ[Aib]EFVEWLIK([AEEA-AEEA-γGlu-γGlu-γGlu-C18 diacid])GGPSEGASLRHYYNWLTRQRY-NH2 [Compound 284, Y-Aib-E-G-T-F-T-S-D-Y-S-I-Aib-L-E-K-Q-A-Q-Aib-E-F-V-E-W-L-I-K(1,3)-GGPSEGASLRHYYNWLTRQRY-NH2.C18DA-gGlu-gGlu-gGlu-OEG-OEG(1,2)]”, the EC50 was 0.51 nM at hGLP1R (setting [2]), 0.33 nM on hGIPR (setting [3]), 0.8 nM at hGIPR (setting [4]) and 18.8 nM on hNPY2R (setting [5]). Besides, the MRT in data set [1] stood at 6.8 h.
